Read-outs that look alike come from different tables or passages of the source.
Test system: SP2 luciferase (Luciola sp2 firefly luciferase), wild type, SEQ ID NO: 1
Assay: Km of SP2 luciferase for D-luciferin and ATP (luminescence kinetics, Michaelis-Menten fit)
Type: biochemical, Luciola sp2 (Malaysian firefly)
Settings: for Km: 0.1 M Tris-HCl pH 8.0, MgSO4 8 mM in injected solution
Description: The measurements were carried out ten times for each sample, and the average of absorbency was used for the calculation.
A solution of 0.1 M Tris-HCl (pH 8.0) containing each of the purified luciferase, 4 mM of ATP, and 8 mM of MgSO4 was connected to the standard pump of the luminometer, and the measurements was carried out at the same time as addition of 50 μl of the solution to the well. A Luminescensor (ATTO) was used for the measurements. Measurements were repeated 3 times for each luciferin concentration.
The peak intensity of the obtained photo count value was plotted with respect to luciferin concentration S, defining the initial rate as V. The plots were subjected to curve fitting of Michaelis Menten type, thereby giving Km values. The curve fitting was performed by a nonlinear least-squares method, and the search of the parameter was performed by a Newton method.
Under various ATP concentrations, the luminous intensity of the obtained luciferase was measured. Based on the results, Km values with respect to ATP was determined.
Various 12 types of ATP solutions were prepared by adding ATP to 0.1 M Tris-HCl (pH 8.0). These solutions contain ATP at final concentration of 5, 10, 20, 40, 80, 160, 320, 480, 640, 800, 1280, 1600, or 1920 μM. These ATP solutions were each injected into 96-hole in a microplate at a volume of 50 μl. […] Measurement was repeated 3 times for each ATP concentration.
The peak intensities of the obtained photon count value were plotted with respect to ATP concentration S, with an initial rate V. The plots were subjected to curve fitting of Michaelis Menten type, thereby giving Km value. The curve fitting was performed by a nonlinear least-squares method, and the search of the parameter was performed by a Newton method.

SMILES | Km (D-luciferin 1 mM, read-out: Km ATP) [µM] | Km with respect to ATP, compared with known luciferase (FIG. 2) (comparison in words) | Km with respect to D-luciferin, compared with known luciferase (FIG. 2) (comparison in words) | Km (read-out: Km D-luciferin, ATP 4 mM) [µM]
Nc1ncnc2c1ncn2[C@@H]1O[C@H](COP(=O)(O)OP(=O)(O)OP(=O)(O)O)[C@@H](O)[C@H]1O [ATP] | 188 | higher Km values |  | 
O=C(O)[C@H]1CSC(c2nc3ccc(O)cc3s2)=N1 [D-luciferin] |  |  | higher Km values | 4.25
